# Results taken from patent US10358434B2, “2-(3-pyridinyl)-1H-benzimidazole derivative compound and medicament containing same” (NIHON MEDI-PHYSICS CO., LTD., priority 2014, dated 2019).
# Legend:
# [1] = system: human adrenal gland section expressing aldosterone-producing adenoma; experiment: In vitro autoradiography using human adrenal adenoma; format: binding; conditions: section of FIG. 17(b)
# How it was run: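 Autoradiography readout: PSL in equal-sized ROIs over adenoma (B2) and normal adrenal cortex (B1), expressed as B2/B1 and decay-corrected using half-life, applied activity and plate contact time. Tissue was surgically excised human adrenal, frozen and cut at 7 μm, incubated 10 min with 5-33 kBq/mL tracer in BSA-containing PBS, then imaged after 16-20 h exposure.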
# [2] = In vivo kinetics experiment (radioactivity distribution); design: species or system Wistar male rat; conditions: rat i.v., mean ± SD
# How it was run: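 Tissue radioactivity (% ID/g) and adrenal-to-blood, liver, kidney, small intestine, muscle and fat ratios determined at 10, 30 and 60 min post-dose. Tracers (approximately 1 to 3.7 MBq, saline with 1 w/v % ascorbic acid) injected i.v. into caudal vein of anesthetized 9-week male Wistar rats; organs excised, weighed, counted.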
# [3] = Plasma stability evaluation (TLC analysis); format: in vitro ADME; conditions: 37° C., 60 minutes, TLC analysis
# How it was run: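 TLC analysis, using each compound's synthesis conditions, judged stability after methanol was added and samples were centrifuged to remove protein. Beforehand, each tracer had spent 60 minutes at 37° C in pooled heparinized normal human plasma.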
smiles,measurement,setting,value
"FCCn1c(-c2cncc(Cn3ccnc3)c2)nc2ccc([123I])cc21 [[^123I] 604, 1-(2-Fluoroethyl)-2-[5-{(imidazol-1-yl)methyl}pyridin-3-yl]-6-[^123I]iodobenzimidazole]",B2/B1 accumulation ratio,[1],1.93
same,"B2 (PSL value, aldosterone-producing adenoma)",[1]; site 71b,3493
same,"B1 (PSL value, normal adrenal cortex)",[1]; site 72b,1813
same,Adrenal gland/blood ratio of radioactivity accumulation,[2]; 10 min after administration,75.41 ± 30.78
same,Adrenal gland/fat ratio of radioactivity accumulation,[2]; 10 min after administration,92.23 ± 49.88
same,Adrenal gland/kidney ratio of radioactivity accumulation,[2]; 10 min after administration,4.89 ± 2.15
same,Adrenal gland/liver ratio of radioactivity accumulation,[2]; 10 min after administration,2.48 ± 1.00
same,Adrenal gland/muscle ratio of radioactivity accumulation,[2]; 10 min after administration,67.00 ± 51.23
same,Adrenal gland/small intestine ratio of radioactivity accumulation,[2]; 10 min after administration,7.85 ± 3.21
same,Radioactivity distribution Adrenal gland,[2]; 10 min after administration,10.24 ± 4.48 % ID/g
same,Radioactivity distribution Bladder (including urine),[2]; 10 min after administration,0.43 ± 0.13 % ID/g
same,Radioactivity distribution Blood,[2]; 10 min after administration,0.13 ± 0.01 % ID/g
same,Radioactivity distribution Fat,[2]; 10 min after administration,0.11 ± 0.01 % ID/g
same,Radioactivity distribution Femur,[2]; 10 min after administration,0.85 ± 0.40 % ID/g
same,Radioactivity distribution Heart,[2]; 10 min after administration,0.65 ± 0.09 % ID/g
same,Radioactivity distribution Kidney,[2]; 10 min after administration,2.09 ± 0.09 % ID/g
same,Radioactivity distribution Large intestine,[2]; 10 min after administration,0.11 ± 0.01 % ID/g
same,Radioactivity distribution Liver,[2]; 10 min after administration,4.09 ± 0.45 % ID/g
same,Radioactivity distribution Lung,[2]; 10 min after administration,0.98 ± 0.16 % ID/g
same,Radioactivity distribution Muscle (lower limbs),[2]; 10 min after administration,0.18 ± 0.05 % ID/g
same,Radioactivity distribution Remaining whole body,[2]; 10 min after administration,0.24 ± 0.01 % ID/g
same,Radioactivity distribution Small intestine,[2]; 10 min after administration,1.29 ± 0.12 % ID/g
same,Radioactivity distribution Spleen,[2]; 10 min after administration,5.59 ± 1.78 % ID/g
same,Radioactivity distribution Stomach,[2]; 10 min after administration,0.66 ± 0.34 % ID/g
same,Radioactivity distribution Testis,[2]; 10 min after administration,0.04 ± 0.01 % ID/g
same,Radioactivity distribution Whole brain,[2]; 10 min after administration,0.01 ± 0.00 % ID/g
same,Adrenal gland/blood ratio of radioactivity accumulation,[2]; 30 min after administration,170.18 ± 126.19
same,Adrenal gland/fat ratio of radioactivity accumulation,[2]; 30 min after administration,156.19 ± 135.29
same,Adrenal gland/kidney ratio of radioactivity accumulation,[2]; 30 min after administration,9.69 ± 6.36
same,Adrenal gland/liver ratio of radioactivity accumulation,[2]; 30 min after administration,8.55 ± 5.73
same,Adrenal gland/muscle ratio of radioactivity accumulation,[2]; 30 min after administration,100.20 ± 67.99
same,Adrenal gland/small intestine ratio of radioactivity accumulation,[2]; 30 min after administration,4.37 ± 1.61
same,Radioactivity distribution Adrenal gland,[2]; 30 min after administration,15.46 ± 8.64 % ID/g
same,Radioactivity distribution Bladder (including urine),[2]; 30 min after administration,1.13 ± 0.19 % ID/g
same,Radioactivity distribution Blood,[2]; 30 min after administration,0.10 ± 0.02 % ID/g
same,Radioactivity distribution Fat,[2]; 30 min after administration,0.12 ± 0.03 % ID/g
same,Radioactivity distribution Femur,[2]; 30 min after administration,0.83 ± 0.03 % ID/g
same,Radioactivity distribution Heart,[2]; 30 min after administration,0.64 ± 0.04 % ID/g
same,Radioactivity distribution Kidney,[2]; 30 min after administration,1.65 ± 0.27 % ID/g
same,Radioactivity distribution Large intestine,[2]; 30 min after administration,0.14 ± 0.02 % ID/g
same,Radioactivity distribution Liver,[2]; 30 min after administration,1.89 ± 0.21 % ID/g
same,Radioactivity distribution Lung,[2]; 30 min after administration,0.97 ± 0.10 % ID/g
same,Radioactivity distribution Muscle (lower limbs),[2]; 30 min after administration,0.16 ± 0.02 % ID/g
same,Radioactivity distribution Remaining whole body,[2]; 30 min after administration,0.27 ± 0.01 % ID/g
same,Radioactivity distribution Small intestine,[2]; 30 min after administration,3.40 ± 0.80 % ID/g
same,Radioactivity distribution Spleen,[2]; 30 min after administration,6.71 ± 0.48 % ID/g
same,Radioactivity distribution Stomach,[2]; 30 min after administration,0.61 ± 0.14 % ID/g
same,Radioactivity distribution Testis,[2]; 30 min after administration,0.05 ± 0.01 % ID/g
same,Radioactivity distribution Whole brain,[2]; 30 min after administration,0.01 ± 0.00 % ID/g
same,Adrenal gland/blood ratio of radioactivity accumulation,[2]; 60 min after administration,329.57 ± 56.14
same,Adrenal gland/fat ratio of radioactivity accumulation,[2]; 60 min after administration,161.46 ± 40.00
same,Adrenal gland/kidney ratio of radioactivity accumulation,[2]; 60 min after administration,15.22 ± 1.37
same,Adrenal gland/liver ratio of radioactivity accumulation,[2]; 60 min after administration,19.61 ± 2.12
same,Adrenal gland/muscle ratio of radioactivity accumulation,[2]; 60 min after administration,130.19 ± 7.34
same,Adrenal gland/small intestine ratio of radioactivity accumulation,[2]; 60 min after administration,5.02 ± 1.64
same,Radioactivity distribution Adrenal gland,[2]; 60 min after administration,18.65 ± 1.67 % ID/g
same,Radioactivity distribution Bladder (including urine),[2]; 60 min after administration,3.04 ± 1.32 % ID/g
same,Radioactivity distribution Blood,[2]; 60 min after administration,0.06 ± 0.01 % ID/g
same,Radioactivity distribution Fat,[2]; 60 min after administration,0.12 ± 0.04 % ID/g
same,Radioactivity distribution Femur,[2]; 60 min after administration,0.90 ± 0.10 % ID/g
same,Radioactivity distribution Heart,[2]; 60 min after administration,0.56 ± 0.01 % ID/g
same,Radioactivity distribution Kidney,[2]; 60 min after administration,1.23 ± 0.01 % ID/g
same,Radioactivity distribution Large intestine,[2]; 60 min after administration,0.55 ± 0.52 % ID/g
same,Radioactivity distribution Liver,[2]; 60 min after administration,0.96 ± 0.10 % ID/g
same,Radioactivity distribution Lung,[2]; 60 min after administration,0.78 ± 0.03 % ID/g
same,Radioactivity distribution Muscle (lower limbs),[2]; 60 min after administration,0.14 ± 0.01 % ID/g
same,Radioactivity distribution Remaining whole body,[2]; 60 min after administration,0.28 ± 0.04 % ID/g
same,Radioactivity distribution Small intestine,[2]; 60 min after administration,3.98 ± 1.32 % ID/g
same,Radioactivity distribution Spleen,[2]; 60 min after administration,5.62 ± 1.11 % ID/g
same,Radioactivity distribution Stomach,[2]; 60 min after administration,0.89 ± 0.21 % ID/g
same,Radioactivity distribution Testis,[2]; 60 min after administration,0.05 ± 0.01 % ID/g
same,Radioactivity distribution Whole brain,[2]; 60 min after administration,0.01 ± 0.00 % ID/g
same,Radiochemical purity after incubation in human plasma,[3],85%
